Measurements taken from ChEMBL document CHEMBL1201862, “PubChem BioAssay data set” (2004).
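In this assay, cells in 96-well plates receive the compound at five concentrations for 48 hours. Endpoints are linearly interpolated between the surrounding concentrations. GI50 = concentration required for 50% inhibition of growth.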 Calls of active or inactive are those of the source. Rule as the data show it: active = GI50 up to about 1.1 µM and inactive = higher.

Experiments:
Experiment in all cases: DTP human tumour cell line panel, 48 h
RXF 393 = test system: RXF 393
HCT-116 = test system: HCT-116
SW-620 = test system: SW-620
OVCAR-4 = test system: OVCAR-4
NCI-H460 = test system: NCI-H460
SK-OV-3 = test system: SK-OV-3
SK-MEL-28 = test system: SK-MEL-28
NCI-H522 = test system: NCI-H522
UACC-257 = test system: UACC-257
KM12 = test system: KM12
A549 = test system: A549
HCC 2998 = test system: HCC 2998
COLO 205 = test system: COLO 205
IGROV-1 = test system: IGROV-1
RPMI-8226 = test system: RPMI-8226
HOP-62 = test system: HOP-62

Measured: GI50

NCc1ccccc1C1CSCSC1
inactive: RXF 393 39.8 µM | HCT-116 > 100 µM | SW-620 > 100 µM | OVCAR-4 > 100 µM | NCI-H460 > 100 µM | SK-OV-3 > 100 µM | SK-MEL-28 > 100 µM | NCI-H522 > 100 µM | UACC-257 > 100 µM | KM12 > 100 µM | A549 > 100 µM

COC(=O)C(CC(=O)c1cc2c(cc1I)OCO2)Cc1cc(OC)c(OC)c(OC)c1I (centres undefined)
inactive: RXF 393 73.5 µM | HCT-116 19.2 µM | HCC 2998 > 100 µM | SW-620 > 100 µM | NCI-H460 > 100 µM | SK-OV-3 > 100 µM | COLO 205 > 100 µM | IGROV-1 > 100 µM | SK-MEL-28 > 100 µM | NCI-H522 9.06 µM | UACC-257 16.4 µM | KM12 71.6 µM | A549 > 100 µM | RPMI-8226 8.13 µM | HOP-62 > 100 µM

COc1cc(C2C(Cl)C(=O)N2NC(=O)c2ccc(NC(C)=O)cc2)cc(Br)c1O (centres undefined)
inactive: HCT-116 > 100 µM | HCC 2998 > 100 µM | SW-620 > 100 µM | NCI-H460 > 100 µM | SK-OV-3 > 100 µM | COLO 205 > 100 µM | IGROV-1 > 100 µM | SK-MEL-28 > 100 µM | NCI-H522 > 100 µM | UACC-257 > 100 µM | KM12 > 100 µM | A549 > 100 µM | RPMI-8226 > 100 µM | HOP-62 > 100 µM

O=C1c2ccccc2C2(O)NC(=S)N(c3ccccc3)C12O (centres undefined)
inactive: HCT-116 > 100 µM | HCC 2998 > 100 µM | SW-620 > 100 µM | OVCAR-4 > 100 µM | NCI-H460 > 100 µM | SK-OV-3 > 100 µM | COLO 205 > 100 µM | IGROV-1 > 100 µM | SK-MEL-28 > 100 µM | NCI-H522 > 100 µM | UACC-257 > 100 µM | KM12 > 100 µM | A549 > 100 µM | RPMI-8226 > 100 µM

Cc1nc(O)nc2c1C(NCCCN(C)C)c1cc(Cl)ccc1N2 (centres undefined)
inactive: RXF 393 13.6 µM | HCT-116 15 µM | HCC 2998 16.3 µM | SW-620 15.2 µM | NCI-H460 14.7 µM | SK-OV-3 16.9 µM | COLO 205 13.2 µM | IGROV-1 16.2 µM | SK-MEL-28 14 µM | NCI-H522 15.2 µM | UACC-257 13.2 µM | KM12 16 µM | A549 13.9 µM | RPMI-8226 17.3 µM | HOP-62 14.6 µM
